In one experiment the target is Adenosine receptor A2a (Homo sapiens, UniProt P29274). Nature of the experiment: ADORA1A Receptor Binding Assay. On the procedure:
2 L of each compound (test compounds, high control compound, low control compound) was transferred into individual wells of an assay plate. Also, to each individual well, 98 µL of Adenosine A1a membrane stock (for ADORA1A Receptor Binding Assay) or Adenosine A2a membrane stock (for ADORA2A Receptor Binding Assay) was dispensed, followed by 100 L of radio-labeled ligand. Plates were then sealed and incubated at room temperature for 1 hour (for ADORA1A Receptor Binding Assay) or 2 hours (for ADORA2A Receptor Binding Assay). Unifilter-96 GF/C filter plates were pre-soaked with 50 µL of 0.3% PEI per well for at least 30 min at room temperature. When binding assays were completed, reaction mixtures were filtered through GF/C plates using a Perkin Elmer Filtermate Harvester, and then each plate was washed 4 with cold wash buffer. Filter plates were then dried for 1 hour at 50 ° C. After drying, the bottom of the filter plate wells was sealed using Perkin Elmer Unifilter-96 backing seal tape. […] 3H trapped on the filter was counted using a Perkin Elmer MicroBeta2 Reader. Data analysis was performed using GraphPad Prism 5 software, and the Inhibition [% Control] was calculated using the following equation: % Inh=(1 Background subtracted Assay value/Background subtracted HC value) *100.

Another experiment addresses T1, Adenosine receptor A2b (Homo sapiens, UniProt P29275).
T1 sequence (P29275 whole entry): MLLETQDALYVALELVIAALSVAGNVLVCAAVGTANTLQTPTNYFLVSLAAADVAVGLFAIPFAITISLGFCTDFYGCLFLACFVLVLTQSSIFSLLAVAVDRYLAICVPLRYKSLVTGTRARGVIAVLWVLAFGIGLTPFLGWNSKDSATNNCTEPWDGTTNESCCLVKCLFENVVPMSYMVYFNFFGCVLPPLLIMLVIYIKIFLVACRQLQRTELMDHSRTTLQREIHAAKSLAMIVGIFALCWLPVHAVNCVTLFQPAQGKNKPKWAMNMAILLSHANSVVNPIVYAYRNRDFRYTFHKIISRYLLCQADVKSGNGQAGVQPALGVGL
Nature of the experiment: ADORA2B Receptor Binding Assay. As for the experimental part:
100 μL of Adenosine A2B membrane stock was dispensed into individual wells of an assay plate. 1 μL of each compound (test compounds, high control compound, low control compound) was then transferred into individual wells, followed by 100 μL of radio-labeled ligand. Plates were then sealed, and incubated at room temperature for 1 hour. Unifilter-96 GF/C filter plates were pre-soaked with 50 μL of 0.5% BSA per well for at least 30 min at room temperature. When binding assays were completed, reaction mixtures were filtered through GF/C plates using a Perkin Elmer Filtermate Harvester, and then each plate was washed 4× with cold wash buffer. Filter plates were then dried for 1 hour at 50° C. After drying, the bottom of the filter plate wells was sealed using Perkin Elmer Unifilter-96 backing seal tape. 50 μL of Perkin Elmer Microscint 20 cocktail was then added, and the top of the filter plate was then sealed using Perkin Elmer TopSeal-A sealing film. 3H trapped on the filter was counted using a Perkin Elmer MicroBeta2 Reader. Data analysis was performed using GraphPad Prism 5 software, and the Inhibition [% Control] was calculated using the following equation: % Inh=(1−Background subtracted Assay value/Background subtracted HC value) *100.

Chain of Adenosine receptor A2a (P29274 whole entry): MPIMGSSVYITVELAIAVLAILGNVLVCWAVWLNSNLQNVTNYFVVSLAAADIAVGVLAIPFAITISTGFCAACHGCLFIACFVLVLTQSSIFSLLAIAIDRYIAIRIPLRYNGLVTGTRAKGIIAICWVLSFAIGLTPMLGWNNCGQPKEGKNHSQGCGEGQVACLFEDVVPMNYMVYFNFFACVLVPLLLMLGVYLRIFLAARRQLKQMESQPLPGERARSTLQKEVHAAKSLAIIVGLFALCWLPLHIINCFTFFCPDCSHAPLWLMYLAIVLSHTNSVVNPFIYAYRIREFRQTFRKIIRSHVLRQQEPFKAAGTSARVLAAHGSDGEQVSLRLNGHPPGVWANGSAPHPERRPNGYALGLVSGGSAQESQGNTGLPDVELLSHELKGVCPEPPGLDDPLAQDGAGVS

With `Cc1ccc(-c2nc(N)c(C#N)c3nc(C(F)(F)F)nn23)o1` [US11718622, Compound 46], the concentration for half-maximal inhibition (IC50) on Adenosine receptor A2a and at Adenosine receptor A2b was under 10 nM throughout.
On to `Nc1nc2c(-c3ccco3)nc(NC(=O)C3CC3)cn2n1` [US11718622, Compound 186], for which the IC50 on Adenosine receptor A2a and at Adenosine receptor A2b was under 10 nM each time.

For orientation: IC50 means the point on the concentration scale where inhibition reaches its midpoint. Low readings indicate higher potency, high ones lower potency.

(Values after BindingDB's records for patent US11718622 (Exelixis, 2023).)
